Where two headings read alike, the source gives them in different places.
Biological target: human TRPA1 channel (Homo sapiens (Human), UniProt O75762)
Experiment: hTRPA1 CHO Ca2+ FLIPR Tetra assay, block of cinnamaldehyde induced calcium influx
Assay type: cell-based
Conditions: CHO cells expressing TRPA1, Hill coefficient fixed to 1.5
Summary of the method: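 IC50 values come from fixed-Hill fits of inhibition of cinnamaldehyde-induced (about EC50 level) calcium influx measured by FLIPR Tetra. Before agonist, TRPA1-expressing CHO cells loaded with calcium indicator were exposed to compound for 10 or 90 min at room temperature in HEPES-buffered HBSS, pH 7.4, with 0.02% BSA.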

[1] = read-out: hTRPA1 IC50 (10 min), compounds incubated 10 minutes at room temperature before cinnamaldehyde agonist
[2] = read-out: hTRPA1 IC50 (90 min), compounds incubated 90 minutes at room temperature before cinnamaldehyde agonist

Sequence of human TRPA1 channel (O75762 whole entry): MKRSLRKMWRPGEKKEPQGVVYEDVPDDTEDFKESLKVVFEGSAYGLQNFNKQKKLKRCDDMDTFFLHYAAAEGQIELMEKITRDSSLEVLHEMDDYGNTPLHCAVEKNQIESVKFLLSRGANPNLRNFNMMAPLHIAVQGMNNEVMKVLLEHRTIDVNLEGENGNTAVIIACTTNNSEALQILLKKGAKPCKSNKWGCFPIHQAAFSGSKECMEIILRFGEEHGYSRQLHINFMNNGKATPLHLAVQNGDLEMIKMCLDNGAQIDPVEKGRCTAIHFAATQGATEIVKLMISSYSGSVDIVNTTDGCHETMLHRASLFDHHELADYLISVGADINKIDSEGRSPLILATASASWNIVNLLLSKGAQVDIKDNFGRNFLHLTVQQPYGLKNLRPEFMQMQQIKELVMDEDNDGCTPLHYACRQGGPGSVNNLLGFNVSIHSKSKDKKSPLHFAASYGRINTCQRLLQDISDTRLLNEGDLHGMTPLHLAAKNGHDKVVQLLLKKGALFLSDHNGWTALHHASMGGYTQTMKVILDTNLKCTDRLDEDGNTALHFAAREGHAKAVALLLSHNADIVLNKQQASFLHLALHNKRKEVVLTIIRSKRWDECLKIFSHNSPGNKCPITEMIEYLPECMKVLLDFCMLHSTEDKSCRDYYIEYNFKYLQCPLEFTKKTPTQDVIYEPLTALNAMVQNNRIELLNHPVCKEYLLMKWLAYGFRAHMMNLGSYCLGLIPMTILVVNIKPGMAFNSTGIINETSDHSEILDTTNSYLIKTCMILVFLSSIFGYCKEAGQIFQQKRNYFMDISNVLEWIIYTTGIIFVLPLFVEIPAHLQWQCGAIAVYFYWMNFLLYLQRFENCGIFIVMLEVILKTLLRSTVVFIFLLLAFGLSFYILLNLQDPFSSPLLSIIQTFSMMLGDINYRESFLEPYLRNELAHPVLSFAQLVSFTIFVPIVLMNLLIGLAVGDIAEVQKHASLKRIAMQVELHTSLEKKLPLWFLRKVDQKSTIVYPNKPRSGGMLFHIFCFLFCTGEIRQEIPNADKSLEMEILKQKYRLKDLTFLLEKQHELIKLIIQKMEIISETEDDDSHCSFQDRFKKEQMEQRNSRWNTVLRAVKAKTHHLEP

Row | Structure (SMILES) | IC50 [1] [µM] | IC50 [2] [µM]
1 | Cn1cnc2ncn(Cc3nc([C@H]4[C@@H]5CN(c6ccc7c(c6)CCCC7)C[C@@H]54)no3)c(=O)c21 [Example Compound 136] | 0.685 | 
2 | Cc1nn(C)c2ncn(Cc3nc([C@H]4[C@@H]5CN(c6cc(Cl)ccn6)C[C@@H]54)no3)c(=O)c12 [Example Compound 137, 5-((3-((1R,5S,6r)-3-(4-chloropyridin-2-yl)-3-azabicyclo[3.1.0]hexan-6-yl)-1,2,4-oxadiazol-5-yl)methyl)-1,3-dimethyl-1,5-dihydro-4H-pyrazolo[3,4-d]pyrimidin-4-one] | 0.0585 | 0.043
3 | Cc1cnn2ncn(Cc3nc([C@H]4[C@@H]5CN(c6cc(Cl)ccn6)C[C@@H]54)no3)c(=O)c12 [Example Compound 138, 3-((3-((1R,5S,6r)-3-(4-chloropyridin-2-yl)-3-azabicyclo[3.1.0]hexan-6-yl)-1,2,4-oxadiazol-5-yl)methyl)-5-methylpyrazolo[5,1-f][1,2,4]triazin-4(3H)-one] | 0.0151 | 0.0055
4 | Cn1nnc2ncn(Cc3nc([C@H]4[C@@H]5CN(c6cccc(Cl)c6)C[C@@H]54)no3)c(=O)c21 [Example Compound 139, 6-((3-((1R,5S,6r)-3-(3-chlorophenyl)-3-azabicyclo[3.1.0]hexan-6-yl)-1,2,4-oxadiazol-5-yl)methyl)-1-methyl-1,6-dihydro-7H-[1,2,3]triazolo[4,5-d]pyrimidin-7-one] | 0.0106 | 0.0036
5 | Cc1ccc(N2C[C@@H]3[C@H](C2)[C@H]3c2noc(Cn3cnc4ncn(C)c4c3=O)n2)nc1 [Example Compound 140, 7-methyl-1-((3-((1R,5S,6r)-3-(5-methylpyridin-2-yl)-3-azabicyclo[3.1.0]hexan-6-yl)-1,2,4-oxadiazol-5-yl)methyl)-1,7-dihydro-6H-purin-6-one] | 0.222 | 0.17
6 | Cn1cnc2ncn(Cc3nc([C@H]4[C@@H]5C=C(c6ccc(Cl)cc6)C[C@@H]54)no3)c(=O)c21 [Example Compound 141, 1-((3-((1S,5S,6R)-3-(4-chlorophenyl)bicyclo[3.1.0]hex-2-en-6-yl)-1,2,4-oxadiazol-5-yl)methyl)-7-methyl-1,7-dihydro-6H-purin-6-one] | 0.00978 | 0.0051
7 | Cn1cnc2ncn(Cc3nc([C@@H]4[C@H]5C=C(c6ccc(Cl)cc6)C[C@H]54)no3)c(=O)c21 [Example Compound 142, 1-((3-((1R,5R,6S)-3-(4-chlorophenyl)bicyclo[3.1.0]hex-2-en-6-yl)-1,2,4-oxadiazol-5-yl)methyl)-7-methyl-1,7-dihydro-6H-purin-6-one] | 0.0152 | 0.012
8 | Cc1ccnc2ncn(Cc3nc([C@H]4C[C@](F)(c5cccc(F)c5)C4)no3)c(=O)c12 [Example Compound 143, 3-((3-((1s,3s)-3-fluoro-3-(3-fluorophenyl)cyclobutyl)-1,2,4-oxadiazol-5-yl)methyl)-5-methylpyrido[2,3-d]pyrimidin-4(3H)-one] | 0.0337 | 0.028
9 | Cn1cnc2ncn(Cc3nc([C@H]4[C@@H]5CN(c6cncc(F)c6)C[C@@H]54)no3)c(=O)c21 [Example Compound 144, 1-((3-((1R,5S,6r)-3-(5-fluoropyridin-3-yl)-3-azabicyclo[3.1.0]hexan-6-yl)-1,2,4-oxadiazol-5-yl)methyl)-7-methyl-1,7-dihydro-6H-purin-6-one] | 0.363 | 0.089
10 | Cn1cnc2ncn(Cc3nc([C@H]4[C@@H]5CN(c6cncc(C(F)(F)F)c6)C[C@@H]54)no3)c(=O)c21 [Example Compound 145, 7-methyl-1-((3-((1R,5S,6r)-3-(5-(trifluoromethyl)pyridin-3-yl)-3-azabicyclo[3.1.0]hexan-6-yl)-1,2,4-oxadiazol-5-yl)methyl)-1,7-dihydro-6H-purin-6-one] | 0.797 | 0.48
11 | Cn1cnc2ncn(Cc3nc([C@H]4[C@@H]5CN(c6ccnc(Cl)c6)C[C@@H]54)no3)c(=O)c21 [Example Compound 146, 1-((3-((1R,5S,6r)-3-(2-chloropyridin-4-yl)-3-azabicyclo[3.1.0]hexan-6-yl)-1,2,4-oxadiazol-5-yl)methyl)-7-methyl-1,7-dihydro-6H-purin-6-one] | 0.46 | 0.1
12 | O=c1c2cccnc2ncn1Cc1nc([C@H]2C[C@H](Oc3cccc(F)c3)C2)no1 [Example Compound 147, 3-((3-((1r,3r)-3-(3-fluorophenoxy)cyclobutyl)-1,2,4-oxadiazol-5-yl)methyl)pyrido[2,3-d]pyrimidin-4(3H)-one] | 0.232 | 0.14
13 | Cn1cnc2cnn(Cc3nc([C@H]4[C@@H]5CN(c6cc(Cl)ccn6)C[C@@H]54)no3)c(=O)c21 [Example Compound 148, 5-((3-((1R,5S,6r)-3-(4-chloropyridin-2-yl)-3-azabicyclo[3.1.0]hexan-6-yl)-1,2,4-oxadiazol-5-yl)methyl)-3-methyl-3,5-dihydro-4H-imidazo[4,5-d]pyridazin-4-one] | 0.305 | 0.15
14 | Cn1nnc2ncn(Cc3nc([C@H]4C[C@](F)(c5ccc(Cl)cc5)C4)no3)c(=O)c21 [Example Compound 149, 6-((3-((1s,3s)-3-(4-chlorophenyl)-3-fluorocyclobutyl)-1,2,4-oxadiazol-5-yl)methyl)-1-methyl-1,6-dihydro-7H-[1,2,3]triazolo[4,5-d]pyrimidin-7-one] | 0.253 | 0.16
15 | Cn1cnc2ncn(Cc3nc([C@H]4[C@@H]5CN(c6ccc(-c7cnco7)cc6)C[C@@H]54)no3)c(=O)c21 [Example Compound 150, 7-methyl-1-((3-((1R,5S,6r)-3-(4-(oxazol-5-yl)phenyl)-3-azabicyclo[3.1.0]hexan-6-yl)-1,2,4-oxadiazol-5-yl)methyl)-1,7-dihydro-6H-purin-6-one] | 0.162 | 0.038
16 | O=c1c2cccnc2ncn1Cc1nc([C@H]2[C@@H]3CN(c4ccc(Cl)cn4)C[C@@H]32)no1 [Example Compound 151, 3-((3-((1R,5S,6r)-3-(5-chloropyridin-2-yl)-3-azabicyclo[3.1.0]hexan-6-yl)-1,2,4-oxadiazol-5-yl)methyl)pyrido[2,3-d]pyrimidin-4(3H)one] | 0.04 | 0.038
17 | O=c1c2cccnc2cnn1Cc1nc([C@H]2[C@@H]3CN(c4ccnc(F)c4)C[C@@H]32)no1 [Example Compound 152, 6-((3-((1R,5S,6r)-3-(2-fluoropyridin-4-yl)-3-azabicyclo[3.1.0]hexan-6-yl)-1,2,4-oxadiazol-5-yl)methyl)pyrido[2,3-d]pyridazin-5(6H)-one] | 0.0587 | 0.041
18 | O=c1c2cccnc2cnn1Cc1nc([C@H]2[C@@H]3CN(c4cc(F)ccn4)C[C@@H]32)no1 [Example Compound 153, 6-((3-((1R,5S,6r)-3-(4-fluoropyridin-2-yl)-3-azabicyclo[3.1.0]hexan-6-yl)-1,2,4-oxadiazol-5-yl)methyl)pyrido[2,3-d]pyridazin-5(6H)-one] | 0.0957 | 0.06
19 | O=c1c2cccnc2ncn1Cc1nc([C@H]2[C@@H]3CN(c4cc(F)ccn4)C[C@@H]32)no1 [Example Compound 154, 3-((3-((1R,5S,6r)-3-(4-fluoropyridin-2-yl)-3-azabicyclo[3.1.0]hexan-6-yl)-1,2,4-oxadiazol-5-yl)methyl)pyrido[2,3-d]pyrimidin-4(3H)-one] | 0.196 | 0.13
20 | Cn1ncc2ncn(Cc3nc([C@H]4[C@@H]5CN(c6cc(Cl)ccn6)C[C@@H]54)no3)c(=O)c21 [Example Compound 155, 6-((3-((1R,5S,6r)-3-(4-chloropyridin-2-yl)-3-azabicyclo[3.1.0]hexan-6-yl)-1,2,4-oxadiazol-5-yl)methyl)-1-methyl-1,6-dihydro-7H-pyrazolo[4,3-d]pyrimidin-7-one] | 0.0893 | 0.073
21 | Cn1cnc2ncn(Cc3nc([C@H]4[C@@H]5CN(C[C@@H](F)c6ccc(Cl)cc6)C[C@@H]54)no3)c(=O)c21 [Example Compound 156, 1-((3-((1R,5S,6S)-3-((S)-2-(4-chlorophenyl)-2-fluoroethyl)-3-azabicyclo[3.1.0]hexan-6-yl)-1,2,4-oxadiazol-5-yl)methyl)-7-methyl-1,7-dihydro-6H-purin-6-one] | 0.843 | 0.86
22 | O=c1c2cccnc2cnn1Cc1nc([C@H]2C[C@](F)(c3ccc(Cl)cc3)C2)no1 [Example Compound 157, 6-((3-((1s,3s)-3-(4-chlorophenyl)-3-fluorocyclobutyl)-1,2,4-oxadiazol-5-yl)methyl)pyrido[2,3-d]pyridazin-5(6H)-one] | 0.0989 | 0.059
23 | Cc1cc(C#N)nc2ncn(Cc3nc([C@H]4C[C@](F)(c5ccc(Cl)cc5)C4)no3)c(=O)c12 [Example Compound 158, 3-((3-((1s,3s)-3-(4-chlorophenyl)-3-fluorocyclobutyl)-1,2,4-oxadiazol-5-yl)methyl)-5-methyl-4-oxo-3,4-dihydropyrido[2,3-d]pyrimidine-7-carbonitrile] | 0.0194 | 0.01
24 | Cn1cnc2ncn(Cc3nc([C@@H]4[C@H]5C=C(c6cc(Cl)ccn6)C[C@H]54)no3)c(=O)c21 [Example Compound 159, 1-((3-((1R,5R,6S)-3-(4-chloropyridin-2-yl)bicyclo[3.1.0]hex-2-en-6-yl)-1,2,4-oxadiazol-5-yl)methyl)-7-methyl-1,7-dihydro-6H-purin-6-one] | 0.119 | 0.068
25 | Cn1cnc2ncn(Cc3nc([C@H]4[C@@H]5C=C(c6cc(Cl)ccn6)C[C@@H]54)no3)c(=O)c21 [Example Compound 160, 1-((3-((1S,5S,6R)-3-(4-chloropyridin-2-yl)bicyclo[3.1.0]hex-2-en-6-yl)-1,2,4-oxadiazol-5-yl)methyl)-7-methyl-1,7-dihydro-6H-purin-6-one] | 0.0915 | 0.031

Source: patent US10711004B2 (Genentech, Inc., priority 2018, dated 2020)
